Results from patent publication US7465727B2, “(1,10B-dihydro-2-(aminoalkyl-phenyl)-5H-pyrazolo[1,5-c][1,3]Benzoxazin-5-yl)phenyl methanone derivatives as HIV viral replication inhibitors” (priority 2005, dated 2008).
Like-named read-outs stand apart in the source and are kept apart here.

Assays:
[1] = tested on: multi-drug resistant HIV-1 virus (HIV-1-MDR); experiment: microbe, parasite or virus in culture; format: cell-based; details: for Activity class for HIV-1-MDR test (pEC50 values): MT4-LTR-EGFP cells, three days incubation, GFP signal, average where more than one run
Experimental: (§1) The compounds were tested in a cellular assay using the MT4-LTR-EGFP cells for anti-viral activity. […] The cellular assay was performed according to the following procedure.
(§2) HIV- or mock-infected MT4-LTR-EGFP cells were incubated for three days in the presence of various concentrations of the inhibitor. Upon infection, the GFP reporter is activated by the viral tat protein. At the end of the incubation period, the GFP signal was measured. In the virus control samples (in the absence of any inhibitor) the maximal fluorescent signal was obtained. The inhibitory activity of the compound was monitored on the virus-infected cells and was expressed as EC50 and EC90. These values represent the amount of the compound required to protect 50% and 90%, respectively, of the cells from virus infection.

[2] = tested on: wild type laboratory HIV strain (HIV-1 strain LAI); experiment: microbe, parasite or virus in culture; format: cell-based
Experimental: as §1, §2

[3] = MT4-LTR-EGFP cells, three days incubation, GFP signal, average where more than one run

SMILES | Activity class for HIV-1-MDR test (pEC50 values) [1] | Activity class for HIV-1-LAI test (pEC50 values) [2, 3] | EC50 ([1]; Human immunodeficiency virus 1, 72 h, read-out: Activity class for HIV-1-MDR test (pEC50 values) (converted)) [nM] | EC50 ([2]; Human immunodeficiency virus 1, 72 h, MT4-LTR-EGFP cells, three days incubation, GFP signal, average where more than one run, read-out: Activity class for HIV-1-LAI test (pEC50 values) (converted)) [nM] | Activity class for HIV-1-LAI test (pEC50 values) [2]
N#Cc1ccc(C(=O)C2Oc3ccccc3C3CC(c4ccc(CNCCN5CCCC5)cc4)=NN23)cc1 (stereo not drawn) [Compound 7] | 6.49 | 6.55 |  |  | 
COc1ccc(CN(C)Cc2ccc(C3=NN4C(C(=O)c5ccc(S(C)(=O)=O)cc5)Oc5ccccc5C4C3)cc2)cc1 (stereo not drawn) [Compound 29] | 8.56 | 8.47 |  |  | 
N#Cc1ccc(C(=O)C2Oc3ccccc3C3CC(c4ccc(CNCc5ccccc5)cc4)=NN23)cc1 (stereo not drawn) [Compound 2] | 7.83 | 7.58 |  |  | 
CN(CCCc1ccc(C2=NN3C(C(=O)c4ccc(C#N)cc4)Oc4ccccc4C3C2)cc1)C1CCCC1 (stereo not drawn) [Compound 35] | 5.81 | 5.76 |  |  | 
N#Cc1ccc(C(=O)C2Oc3ccccc3C3CC(c4ccc(CCCCNCc5ccncc5)cc4)=NN23)cc1 (stereo not drawn) [Compound 21] | 5.2 | 5.23 |  |  | 
N#Cc1ccc(C(=O)C2Oc3ccccc3C3CC(c4ccc(CCCNCc5ccccn5)cc4)=NN23)cc1 (stereo not drawn) [Compound 31] | 5.38 | 4.85 |  |  | 
COc1ccc(CN(C)CCc2ccc(C3=NN4C(C(=O)c5ccc(C#N)cc5)Oc5ccccc5C4C3)cc2)cc1 (stereo not drawn) [Compound 32] | 6.72 | 7.08 |  |  | 
COc1ccc(CN(C)CCCCc2ccc(C3=NN4C(C(=O)c5ccc(C#N)cc5)Oc5ccccc5C4C3)cc2)cc1 (stereo not drawn) [Compound 23] | 5.32 | 5.38 |  |  | 
CCN(CC)Cc1ccc(C2=NN3C(C(=O)c4ccc(C#N)cc4)Oc4ccccc4C3C2)cc1 (stereo not drawn) [Compound 1, 4-[4-(4-cyano-benzoyl)-1,9b-dihydro-5-oxa-3,3a-diaza-cyclopenta[a]naphthalen-2-yl]-N,N-diethyl-benzylamine] |  |  | 8.71 | 19.1 | 
COc1ccc(CN(C)CCCc2ccc(C3=NN4C(C(=O)c5ccc(C#N)cc5)Oc5ccccc5C4C3)cc2)cc1 (stereo not drawn) [Compound 25] | 5.04 | 6.53 |  |  | 
CN(C)c1ccc(CNCc2ccc(C3=NN4C(C(=O)c5ccc(C#N)cc5)Oc5ccccc5C4C3)cc2)cc1 (stereo not drawn) [Compound 37] | 6.31 | 6.12 |  |  | 
COc1ccc(NCc2ccc(C3=NN4C(C(=O)c5ccc(C#N)cc5)Oc5ccccc5C4C3)cc2)cc1 (stereo not drawn) [Compound 5] | 6.5 |  |  |  | 6.22
CCN(CC)CCc1ccc(C2=NN3C(C(=O)c4ccc(C#N)cc4)Oc4ccccc4C3C2)cc1 (stereo not drawn) [Compound 12] | 7.35 | 7.16 |  |  | 
CN(C)CCCc1ccc(C2=NN3C(C(=O)c4ccc(C#N)cc4)Oc4ccccc4C3C2)cc1 (stereo not drawn) [Compound 16] | 5.51 |  |  |  | 5.6
COc1ccc(CN(C)Cc2ccc(C3=NN4C(C(=O)c5ccc(C#N)cc5)Oc5ccccc5C4C3)cc2)cc1 (stereo not drawn) [Compound 8] | 7.85 | 7.81 |  |  | 
CN(Cc1ccc(C2=NN3C(C(=O)c4ccc(C#N)cc4)Oc4ccccc4C3C2)cc1)Cc1ccc(N(C)C)cc1 (stereo not drawn) [Compound 36] | 7.18 | 7.45 |  |  | 
CN(C)CCN(C)Cc1ccc(C2=NN3C(C(=O)c4ccc(C#N)cc4)Oc4ccccc4C3C2)cc1 (stereo not drawn) [Compound 4] | 6.25 | 6.41 |  |  | 

SMILES | Activity class for HIV-1-MDR test (pEC50 values) [1] | Activity class for HIV-1-LAI test (pEC50 values) [2, 3] | EC50 ([1]; Human immunodeficiency virus 1, 72 h, read-out: Activity class for HIV-1-MDR test (pEC50 values) (converted)) [nM] | EC50 ([2]; Human immunodeficiency virus 1, 72 h, MT4-LTR-EGFP cells, three days incubation, GFP signal, average where more than one run, read-out: Activity class for HIV-1-LAI test (pEC50 values) (converted)) [nM] | Activity class for HIV-1-LAI test (pEC50 values) [2]
CN(C)CCN(C)CCCc1ccc(C2=NN3C(C(=O)c4ccc(C#N)cc4)Oc4ccccc4C3C2)cc1 (stereo not drawn) [Compound 15] | 5.52 | 5.42 |  |  | 
CCN(CC)Cc1ccc(C2=NN3C(C(=O)c4ccc(C(C)(C)C)cc4)Oc4ccccc4C3C2)cc1 (stereo not drawn) [Compound 11] | 7.59 | 7.64 |  |  | 
CCN(CC)CCCCc1ccc(C2=NN3C(C(=O)c4ccc(C#N)cc4)Oc4ccccc4C3C2)cc1 (stereo not drawn) [Compound 19] | 5.43 | 5.39 |  |  | 
CN(C)CCN(C)CCCCc1ccc(C2=NN3C(C(=O)c4ccc(C#N)cc4)Oc4ccccc4C3C2)cc1 (stereo not drawn) [Compound 22] | 5.47 | 5.52 |  |  | 
COc1ccc(CN(C)Cc2ccc(C3=NN4C(C(=O)c5ccc(C(C)(C)C)cc5)Oc5ccccc5C4C3)cc2)cc1 (stereo not drawn) [Compound 9] | 7 | 7.28 |  |  | 
CN(CCCCc1ccc(C2=NN3C(C(=O)c4ccc(C#N)cc4)Oc4ccccc4C3C2)cc1)C1CCCC1 (stereo not drawn) [Compound 27] | 5.15 | 5.36 |  |  | 
N#Cc1ccc(C(=O)C2Oc3ccccc3C3CC(c4ccc(CCCCNCc5ccccc5)cc4)=NN23)cc1 (stereo not drawn) [Compound 18] | 5.47 |  |  |  | 5.47
CN(Cc1ccc(C2=NN3C(C(=O)c4ccc(C#N)cc4)Oc4ccccc4C3C2)cc1)C1CCCC1 (stereo not drawn) [Compound 13] | 8.62 | 8.32 |  |  | 
CN(C)CCN(C)CCc1ccc(C2=NN3C(C(=O)c4ccc(C#N)cc4)Oc4ccccc4C3C2)cc1 (stereo not drawn) [Compound 34] | 6.12 | 6.25 |  |  | 
N#Cc1ccc(C(=O)C2Oc3ccccc3C3CC(c4ccc(CCCNCc5ccccc5)cc4)=NN23)cc1 (stereo not drawn) [Compound 17] | 5.37 | 5.56 |  |  | 
COc1ccc(NCCCc2ccc(C3=NN4C(C(=O)c5ccc(C#N)cc5)Oc5ccccc5C4C3)cc2)cc1 (stereo not drawn) [Compound 14] | 6.34 |  |  |  | 6.41
N#Cc1ccc(C(=O)C2Oc3ccccc3C3CC(c4ccc(CCNCc5ccccc5)cc4)=NN23)cc1 (stereo not drawn) [Compound 33] | 6.07 | 6.35 |  |  | 
N#Cc1ccc(C(=O)C2Oc3ccccc3C3CC(c4ccc(CNCc5ccccn5)cc4)=NN23)cc1 (stereo not drawn) [Compound 6] | 7.28 | 7.13 |  |  | 
CCN(CC)Cc1ccc(C2=NN3C(C(=O)c4ccc(S(C)(=O)=O)cc4)Oc4ccccc4C3C2)cc1 (stereo not drawn) [Compound 30] | 7.95 | 7.9 |  |  | 
N#Cc1ccc(C(=O)C2Oc3ccccc3C3CC(c4ccc(CCCCNCc5ccccn5)cc4)=NN23)cc1 (stereo not drawn) [Compound 26] | 4.86 | 5.28 |  |  | 
COc1ccc(NCCCCc2ccc(C3=NN4C(C(=O)c5ccc(C#N)cc5)Oc5ccccc5C4C3)cc2)cc1 (stereo not drawn) [Compound 20] | 6.51 |  |  |  | 7.42
